Data: paper PMC6894747 (PLoS Pathogens, 2019)
Like-named read-outs stand apart in the source and are kept apart here. Values belong to the compound of their own block, whether it stands above or below them. Positions of bridges follow the written chain, without caps; N, C: chain ends. Residues, ends and D or L forms follow the SMILES beside them.

Experiments:
[1] = parameters: method as in PMID 16174446; conditions: reported value; cited from earlier work
[2] = test system: HIV-1 IIIB (subtype B, X4); assay type: cell-based; conditions: IIIB (subtype B, X4)
Method: (§2) Briefly, 1×10^5/mL MT-2 or M7 cells were infected with different HIV-1 viruses at 100 TCID50 (50% tissue culture infective dose) in the presence or absence of peptides at graded concentrations overnight. Then the culture supernatants were replaced with equal volume of fresh medium. On the fourth day post-infection, supernatants were collected and mixed with equal volume of 5% Triton X-100. […] The IC50 values were calculated with CalcuSyn software [35–36], and inhibition curves of best fit were generated with GraphPad Prism.

[3] = test system: HIV-1 Bal (subtype B, R5); assay type: cell-based; conditions: Bal (subtype B, R5)
Method: as §2

HIV-1 IIIB = assay: Inhibitors alone or in combination against HIV-1 IIIB; assay type: cell-based
Method: The samples were serially diluted and tested for their inhibitory activity on HIV-1 infection as described above. The data were analyzed for synergistic effect by calculating the combination index (CI) with the CalcuSyn software. CI values of <0.95 and >1.05 indicate synergy and antagonism, respectively. CI <0.1, 0.1–0.3, 0.3–0.7, 0.7–0.85, and 0.85–0.90 indicate very strong synergism, strong synergism, synergism, moderate synergism, and slight synergism, respectively. Fold of dose reduction was calculated with the ratio of concentrations of inhibitor testing alone and in combination.

rhesus monkey IgG = assay: Isothermal titration calorimetry (ITC); assay type: binding; conditions: 300 μM peptide injected into 30 μM rhesus monkey IgG, PBS, 25 °C
Method: ITC assay was performed with an ITC microcalorimeter instrument (NANO ITC, TA Instruments, Lindon, UT) as described previously. In brief, 300 μM peptides were dissolved in PBS and injected into the chamber containing 30 μM of rhesus monkey IgG. The experiments were carried out at 25 °C. The time between injections was 300 s, and the stirring speed was 300 rpm. The heats of dilution were determined in control experiments by injecting peptides into PBS and then subtracting from the heats produced in the corresponding peptide-IgG binding experiments. Data acquisition and analysis were performed using the Origin software, and the best fitting curves were generated with GraphPad Prism.

[4] = test system: H9/HIV-1IIIB target cells with PBMC effector cells; assay: ADCC assay, 10E8-mediated lysis; assay type: cell-based, human; conditions: peptide up to 20 μM added to 10E8
Method: H9/HIV-1IIIB cells expressing HIV-1 Env (2.5 × 10^4 cells) as the target cells were seeded into a 96-well plate (25 μL/well), and the mixture of a serially diluted inhibitors and 10E8 (1.5 μg/mL) was added to the culture plate. PBMC (AllCells) as effector cells (2.5 × 10^4 cells in 25 μL) were cocultured with the mixture-treated target cells at 37 °C overnight, and the […] activity was measured using the CytoTox-ONE Homogeneous Membrane Integrity Assay (Promega).

MT-2 cells = assay: Cytotoxicity assay (CCK-8); assay type: cell-based; conditions: up to 5 μM, 48 h, CCK-8; triplicate
Method: (§1) The potential cytotoxicity of peptides on MT-2 and M7 cells was measured by using the Cell Counting Kit-8 according to the manufacturer’s instructions (CCK-8, Dojindo Laboratories, Kumamoto, Japan). Briefly, 100 μL of a peptide at graded concentrations were added to equal volumes of cells (10^4 cells/well) in a 96-well plate. Cell viability was evaluated using the CCK-8 kit after incubation at 37 °C for 2 days. Incubation with CCK-8 reagents at 37 °C for another 4 h, the absorbance at 450 nm was measured with an ELISA reader, and the percentage of cytotoxicity was calculated.

M7 cells = assay: Cytotoxicity assay (CCK-8); assay type: cell-based; conditions: up to 5 μM, 48 h, triplicate
Method: as §1

Compound: enfuvirtide
- reported t1/2 [1]: 3 h

Compound: CC[C@H](C)[C@H](NC(=O)[C@H](CC(C)C)NC(=O)[C@H](CCC(=O)O)NC(=O)[C@H](CCC(=O)O)NC(=O)[C@@H](NC(=O)[C@H](CCCCN)NC(=O)[C@H](CCCCN)NC(=O)[C@@H](NC(=O)[C@H](Cc1ccc(O)cc1)NC(=O)[C@H](CCC(=O)O)NC(=O)[C@H](CCC(=O)O)NC(=O)[C@@H](NC(=O)[C@H](CCCCN)NC(=O)[C@H](CCCCN)NC(=O)[C@H](CC(=O)O)NC(=O)[C@H](Cc1c[nH]c2ccccc12)NC(=O)[C@H](CCC(=O)O)NC(=O)[C@H](CCC(=O)O)NC(=O)[C@H](Cc1c[nH]c2ccccc12)NC(=O)[C@@H](NC(=O)[C@@H](N)CCSC)[C@@H](C)O)[C@@H](C)CC)[C@@H](C)O)[C@@H](C)CC)C(=O)N[C@@H](CCCCN)C(=O)N[C@@H](CCCCN)C(=O)N[C@@H](CO)C(=O)N[C@@H](CC(=O)O)C(=O)N[C@H]1CSSC[C@@H](C(=O)N[C@H](C(=O)O)[C@@H](C)O)NC(=O)[C@H](Cc2c[nH]c3ccccc23)NC(=O)[C@H](C(C)C)NC(=O)[C@H](CC(C)C)NC(=O)[C@H](CCC(=O)O)NC(=O)CNC(=O)[C@H](CC(C)C)NC(=O)[C@H](Cc2c[nH]cn2)NC(=O)[C@H](Cc2c[nH]c3ccccc23)NC(=O)[C@H](C)NC1=O [CP24-IBP] (H-MTWEEWDKKIEEYTKKIEELIKKSDCAWHLGELVWCT-OH; disulfide 26-36)
- IC50 [2]: 0.0413 µM
- IC50 [3]: 0.011 µM

- IC50 (HIV-1 IIIB; experiment N6 / NBD556, HIV-1 IIIB, read-out: IC50 Alone): 28.1 µM
- IC50 (HIV-1 IIIB; mixture N6 / NBD556, HIV-1 IIIB, read-out: IC50 In mixture): 4.61 µM
Compound: CC1(C)CC(NC(=O)C(=O)Nc2ccc(Cl)cc2)CC(C)(C)N1 [NBD556]
- Dose reduction (HIV-1 IIIB; mixture N6 / NBD556, HIV-1 IIIB): 6.1 fold

Compound: CC(C)C[C@@H]1NC(=O)[C@H](Cc2c[nH]cn2)NC(=O)[C@H](Cc2c[nH]c3ccccc23)NC(=O)[C@H](C)NC(=O)[C@@H](NC(=O)[C@@H](N)CC(=O)O)CSSC[C@@H](C(=O)N[C@H](C(=O)O)[C@@H](C)O)NC(=O)[C@H](Cc2c[nH]c3ccccc23)NC(=O)[C@H](C(C)C)NC(=O)[C@H](CC(C)C)NC(=O)[C@H](CCC(=O)O)NC(=O)CNC1=O [IBP]
- Kd (rhesus monkey IgG): 2.44 µM
- effect on 10E8-mediated lytic activity [4]: remained about the same
- in vitro cytotoxicity to MT-2 cells (MT-2 cells): no in vitro cytotoxicity
- in vitro cytotoxicity to M7 cells (M7 cells): no in vitro cytotoxicity
